Literature values as cited in patent publication US20040058943A1, “Medicinal composition for treatment of chronic cardiac failure” (priority 2001, published 2004).
Like-named read-outs stand apart in the source and are kept apart here.

How the values were obtained:
[1] = test system: model rats of heart failure after myocardial infarction; conditions: for effect on mortality: 9-months long-term oral administration
[2] = test system: model rats of heart failure; conditions: 10-week oral administration

COc1ccccc1Oc1c(NS(=O)(=O)c2ccc(C(C)(C)C)cc2)nc(-c2ncccn2)nc1OCCO [bosentan]
effect on mortality ([1]; dose 30 mg/kg·day): ineffective
effect on mortality ([1]; dose 100 mg/kg·day): significantly reduces the mortality
ameliorating the left ventricular end-diastolic pressure (LVEDP) ([1]; long-term oral administration): effective
maximum value of the first order differentiation of the left ventricular systolic pressure (LVdP/dtmax) ([1]; long-term oral administration): ineffective

COc1cc(OC)nc(O[C@H](C(=O)O)C(OC)(c2ccccc2)c2ccccc2)n1 [darusentan]
ameliorating the left ventricular end-diastolic pressure (LVEDP) [2]: effective
cardiac hypertrophy [2]: ineffective
maximum value of the first order differentiation of the left ventricular systolic pressure (LVdP/dtmax) [2]: ineffective
